Reference: the supplement of paper PMC10307832

Experiments:
Assay in all cases: relative viability (nuclei count vs DMSO), 5 days (fraction); higher = more cells survive
[1] = compound: CN1C=C(C2=CC=CC=C21)/C=C\3/C4=C(C=CC=N4)NC3=O + Nc1ncn([C@H]2C[C@H](O)[C@@H](CO)O2)c(=O)n1 [Decitabine] (partner 2 µM)
How it was run: (§1)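 Medians of duplicate plates are given as relative viability. That measure is the nuclei count in treated wells divided by the count in vehicle wells. Counts were taken on 4× images of lung cancer cell lines in 1536-well plates, 5 days after pin-tool dosing the day after seeding with one drug alone or a fixed anchor-drug dose plus five library-drug doses (not always all listed) in √10 steps.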

[2] = compound: CN1C=C(C2=CC=CC=C21)/C=C\3/C4=C(C=CC=N4)NC3=O + CS(=O)(=O)N1CCN(Cc2cc3nc(-c4cccc5[nH]ncc45)nc(N4CCOCC4)c3s2)CC1 [Pictilisib] (partner 1 µM)
How it was run: as §1

[3] = compound: CC(=O)Nc1cccc(-n2c(=O)n(C3CC3)c(=O)c3c(Nc4ccc(I)cc4F)n(C)c(=O)c(C)c32)c1 [Trametinib] + CS(=O)(=O)CCNCc1ccc(-c2ccc3ncnc(Nc4ccc(OCc5cccc(F)c5)c(Cl)c4)c3c2)o1 [Lapatinib] (partner 2 µM)
How it was run: as §1

[4] = compound: CC(=O)Nc1cccc(-n2c(=O)n(C3CC3)c(=O)c3c(Nc4ccc(I)cc4F)n(C)c(=O)c(C)c32)c1 [Trametinib] + C[C@@H](Oc1cc(-c2cnn(C3CCNCC3)c2)cnc1N)c1c(Cl)ccc(F)c1Cl [Crizotinib] (partner 1 µM)
How it was run: as §1

Cell Line	relative viability ([1]; first compound 0.02 µM)	relative viability ([1]; first compound 0.06325 µM)	relative viability ([1]; first compound 0.2 µM)	relative viability ([1]; first compound 0.6325 µM)	relative viability ([1]; first compound 2 µM)	relative viability ([2]; first compound 0.02 µM)	relative viability ([2]; first compound 0.06325 µM)	relative viability ([2]; first compound 0.2 µM)	relative viability ([2]; first compound 0.6325 µM)	relative viability ([2]; first compound 2 µM)	relative viability ([3]; first compound 0.0025 µM)	relative viability ([3]; first compound 0.007906 µM)	relative viability ([3]; first compound 0.025 µM)	relative viability ([3]; first compound 0.07906 µM)	relative viability ([3]; first compound 0.25 µM)	relative viability ([4]; first compound 0.0025 µM)	relative viability ([4]; first compound 0.007906 µM)	relative viability ([4]; first compound 0.025 µM)	relative viability ([4]; first compound 0.07906 µM)	relative viability ([4]; first compound 0.25 µM)
PC-14	0.218	0.209	0.178	0.23	0.226	0.573	0.662	0.881	0.635	0.691	0.27	0.194	0.182	0.192	0.192	0.994	0.909	0.815	0.686	0.55
HCC-44	0.877	0.938	0.95	0.962	0.838	0.47	0.558	0.475	0.564	0.485	0.996	0.868	0.929	0.701	0.493	0.853	0.916	0.763	0.728	0.526
A-427	0.632	0.479	–	0.557	0.651	0.726	0.707	–	0.679	0.742	1.1	1.05	0.619	0.818	0.678	0.924	0.757	0.659	0.658	0.502
NCI-H596	1.03	1.06	0.958	1.88	1.81	0.333	0.322	0.421	0.392	0.396	0.918	0.817	0.807	0.833	0.412	0.8	0.824	0.757	0.721	0.597
RERF-LC-KJ	0.736	0.633	0.708	0.666	0.687	0.748	0.524	0.55	0.445	0.497	0.812	0.822	0.79	0.744	0.568	0.794	0.819	0.778	0.664	0.763
NCI-H647	0.391	0.314	0.384	0.327	0.349	0.379	0.292	–	0.324	0.312	1.03	0.936	0.759	0.683	0.231	0.961	1.04	0.746	0.671	0.572
NCI-H1734	0.482	0.535	–	0.515	0.499	0.432	0.454	–	0.466	0.45	1.02	1.01	–	1.03	0.517	0.644	0.622	–	0.493	0.285
SK-LU-1	0.484	0.499	0.578	0.617	0.6	0.425	0.544	0.63	0.472	0.543	0.791	0.721	0.538	0.426	0.304	0.976	0.87	0.775	0.619	0.371
